In patent US20100292260A1, “6-VINYL PYRIMIDINE AND PYRIMIDINONE DERIVATIVES AND THE USE THEREOF” (priority 2005, published 2010):
Like-named read-outs stand apart in the source and are kept apart here.

Experiments:
[1] = tested on: wild strain of HIV-1 NL4-3; test: Inhibition of viral proliferation on culture cells (MT-4, MTT), wild strain; type: cell-based
Protocol: (§1) The biological activity of the compounds was evaluated on lymphoid cell lines MT-4 against the wild strain of HIV-1 NL4-3. The MT-4 cells were briefly infected with the appropriate HIV-1 or the infection was simulated to determine the cytoxicity, in the presence of different concentrations of potential inhibitor compounds. 5 days after the infection a colorimetric method was used that involves using a tetrazole salt (MTT) to evaluate the number of surviving cells. The mutant IRLL98 HIV-1 contains the following mutations in the coding sequence for RT:M41L, D67N, Y181C, M184V, R211K, T215Y (resistance to NRTI) and the mutations K101Q, Y181C, G190A (resistance to NNRTI). The H1V-1 mutants containing multi-NNRTI mutations, K103N or Y188L as mutants were supplied by the Medical Research Council Centralised Facility for AIDS Reagents, Herfordshire, UK.

[2] = tested on: HIV-1 mutant K103N; test: Inhibition of viral proliferation on culture cells (MT-4, MTT), K103N mutant; type: cell-based
Protocol: as §1

[3] = tested on: HIV-1 mutant Y181L; test: Inhibition of viral proliferation on culture cells (MT-4, MTT), Y181L mutant; type: cell-based
[4] = tested on: MT-4 cells; test: Cytotoxicity in mock-infected MT-4 cells (MTT); type: cell-based
Protocol: as §1

[5] = target: T1, HIV-1 (recombinant) reverse transcriptase (Human immunodeficiency virus type 1 group M subtype B, UniProt P03366); test: Enzyme test: reverse transcription reaction in vitro with recombinant RT, wild type; type: biochemical; details: for IC50: Table 1, recombinant RT wild type, read-out: ID50 WT
T1 construct: 20-50 nM HIV-1 (recombinant) reverse transcriptase
Protocol: (§2) In a final volume of 25 microlitres the following reagents were mixed: 50 mM Tris-HCl pH 7.5, 0.25 mg/ml BSA, 0.5 mM DTT, 20-50 nM HIV-1 (recombinant) reverse transcriptase, nucleotide substrate dTTP marked radioactively (^3H, 4 Ci/mmol) and nucleic acid (poly(rA)/oligo(dT)). The concentrations of dTTP and poly(rA)/oligo(dT) in standard conditions were 5 μM and 0.5 μM, respectively.
(§3) The reaction mixture is incubated 10 min. at 37° C. and 20 μl are removed and deposited on a GF/C Whatman glass fibre filter measuring 25 mm in diameter. The filters are washed 3 times for 5 min. in 5% trichloroacetic acid and once for 5 min. in absolute alcohol. After being dried, the filters are immersed in a scintillating mixture (Packard) and the acid precipitable radioactivity is measured by a scintillation counter for β-emitting isotopes (Beckman).
(§4) The dose-response curves obtained by means of samples of enzyme activity in the presence of increasing doses of inhibitor were analysed according to the equation E(%)=Emax/([…], where E(%) is the fraction of enzyme activity that is measurable in the presence of each concentration of inhibitor, Emax is the activity in the absence of an inhibitor, I is the concentration of inhibitor. The ID50 was calculated by analysing data using the GraphPad Prism graphic interpolation programme (for Macintosh).

[6] = Cytotoxicity in mock-infected MT-4 cells (MTT); type: cell-based; details: human
Protocol: as §1

[7] = target: T2, reverse transcriptase containing the mutation K103N (Human immunodeficiency virus type 1 group M subtype B, UniProt P03366, K702N); test: Enzyme test with mutated reverse transcriptase K103N; type: biochemical, HIV-1
T2 construct: cloning the gene of the mutated RT in an expression vector for prokariotic cells; made in house
Protocol: as §2, §3
(§5) In some experiments, the HIV-1 recombinant reverse transcriptase was substituted by a reverse transcriptase containing the mutations K.103N and Y181I. They were produced by cloning the gene of the mutated RT in an expression vector for prokariotic cells according to the method reported in the literature (Maga G, Amacker M, Ruel N, Hubscher U, Spadari S. Resistance to nevirapine of HIV-1 reverse transcriptase mutants: loss of stabilizing interactions and thermodynamic or steric barriers are induced by different single amino acid substitutions. J Mol Biol. Dec. 19, 1997; 274(5):738-47).
as §4

[8] = target: T3, reverse transcriptase containing the mutation Y181I (Human immunodeficiency virus type 1 group M subtype B, UniProt P03366, Y780I); test: Enzyme test with mutated reverse transcriptase Y181I; type: biochemical, HIV-1
T3 construct: cloning the gene of the mutated RT in an expression vector for prokariotic cells; made in house
Protocol: as §2, §3, §5, §4

[9] = tested on: HIV-1 mutant Y181C; test: Inhibition of viral proliferation on culture cells (MT-4, MTT), Y181C mutant; type: cell-based; details: Table 3; at 56.18
Protocol: as §1

[10] = tested on: HIV-1 mutant Y188L; test: Inhibition of viral proliferation on culture cells (MT-4, MTT), Y188L mutant; type: cell-based; details: Table 3; cell test; read-out: Y188L
Protocol: as §1

[11] = Table 1, MT-4 cells, read-out: EC50 NL4-3 wt
[12] = Human immunodeficiency virus 1, NL43, MT4, read-out: EC50 NL4-3 wt
[13] = Human immunodeficiency virus 1, MT4, read-out: EC50 K103N
[14] = Human immunodeficiency virus 1, MT4, read-out: EC50 Y181L

| Compound | EC50 [1, 11] | CC50 [4] | IC50 [5] | EC50 [1, 12] | EC50 [2, 13] | EC50 [3, 14] | CC50 at 5 days [6] | IC50 [7] | IC50 [8] | also measured |
| --- | --- | --- | --- | --- | --- | --- | --- | --- | --- | --- |
| C=Cc1cc(N(CC)CC)nc(SCc2ccc(OC)cc2)n1 [6′a] | > 33 µM | 33 µM |  |  |  |  |  |  |  | EC50 ([2]; Table 1, MT-4 cells, read-out: EC50 K103N): 3.6 µM; EC50 ([3]; Table 1, MT-4 cells, read-out: EC50 Y181L): > 35.8 µM |
| C=Cc1cc(N(CC)CC)nc(S(=O)(=O)Cc2ccc(OC)cc2)n1 [8′] | > 42.9 µM | 42.9 µM | 467 µM |  |  |  |  |  |  |  |
| C=Cc1cc(N(C)C)nc(S(C)(=O)=O)n1 [Compound 8a] |  |  | 0.022 µM | > 110 µM | > 110 µM | > 110 µM | 110 µM | 28 µM | 78 µM | increase in activity in relation to the wild type enzyme [5]: 2900 times; inhibition of the RT at different concentrations of dTTP ([5]; FIG. 1): decreases with the increase of the concentrations of TTP; apparent affinity (Kapp) of the RT for dTTP ([5]; FIG. 2, different concentrations of 8a): decreases as the concentration of 8a increases; inhibition of the RT at different concentrations of poly(rA)/oligo(dT) ([5]; FIG. 3): increase of the capacity thereof to inhibit RT; preferred enzyme form bound ([5]; FIG. 3): preferentially binds to the binary complex of the RT with the nucleic acid; reverse transcriptase ID50 greater than that of MB3B ([5]; compared with MB3B): 3 orders of magnitude; action mechanism: inhibition of reverse transcriptase ([5]; versus nucleotide substrate): competitive with the nucleotide; activity in cell tests on wild type, in words [1]: did not show appreciable activity; activity against enzyme with resistance mutation in position 103, in words [7]: significantly active; activity against enzyme with resistance mutation in position 181, in words [8]: significantly active |
| C=Cc1nc(S(C)(=O)=O)nc(N(C)C)c1I [Compound 8b] |  |  | 275 µM | > 22.9 µM | > 22.9 µM | > 22.9 µM | 22.9 µM | > 400 µM | > 400 µM |  |
| COc1ccc(C#CCSc2nc(Cc3c(Cl)cccc3Cl)c(C)c(=O)[nH]2)cc1 [Compound 27c] |  |  |  |  |  |  |  |  |  | Y181C, % at given concentration [9]: 40% at; EC50 ([1]; Table 3, cell test, read-out: NLA-3wt): 2.47 µM; EC50 ([2]; Table 3, cell test, read-out: K103N): > 56.2 µM; CC50 ([4]; Table 3, read-out: CC50): > 56.2 µM; EC50 [10]: > 56.2 µM |
